Among the data in PubChem BioAssay (NCI) are TGI and GI50 values, retold here.

“And” between values parts separate entries of the source, which are not always exact repeats. Equal entries are not always repeated.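 Five concentrations, 48 hours, 96-well plates. The concentration for 50% growth inhibition is given as GI50. TGI is the concentration that stops growth completely.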

Test systems include A498 renal; DU-145 prostate; EKVX NSCLC; MCF7 breast; MOLT-4 leukemia; NCI-H522 lung; OVCAR-4 ovarian; RPMI-8226 leukemia; SK-MEL-28 melanoma; SNB-19 CNS.
Holding throughout (test): growth of human tumour cells (NCI), 48 h

Take `CCCCCCCCCCCCCC(=O)NO`: the TGI in the test with A498 renal was 63.2 µM; with DU-145 prostate it was 29.6 µM; in the test on EKVX NSCLC, 54.1 µM; with MCF7 breast it was over 100 µM; with MOLT-4 leukemia, over 49 µM; in the test on NCI-H522 lung, 19.5 µM. Also, the TGI was 39.3 µM in the test with OVCAR-4 ovarian, over 100 µM with RPMI-8226 leukemia, 75.8 µM in the test on SK-MEL-28 melanoma and 73.2 µM in the test on SNB-19 CNS.

In the case of `O=C1NC(c2cccc3ccccc23)Nc2ccccc21` (configuration not stated), the TGI was 0.0848 µM in the test on A498 renal; 8.11 µM in the test with DU-145 prostate; over 100 µM with EKVX NSCLC; 2.56 µM with MCF7 breast; 0.0765 µM and 0.25 µM in the test with NCI-H522 lung; over 100 µM in the test with OVCAR-4 ovarian. In addition, the TGI with RPMI-8226 leukemia was 0.493 µM and 1.05 µM; in the test on SK-MEL-28 melanoma it was over 100 µM; in the test with SNB-19 CNS, over 100 µM. In addition, the GI50 was 0.046 µM with DU-145 prostate; 0.0278 µM in the test with EKVX NSCLC; 0.284 µM in the test on MCF7 breast; 0.0443 µM in the test on MOLT-4 leukemia; 0.0194 µM and 0.0497 µM in the test on NCI-H522 lung; 0.166 µM in the test with OVCAR-4 ovarian. Besides, the GI50 in the test on SNB-19 CNS is 0.0554 µM.

As to `CCN(CC)CCOc1ccc(NC(=O)C(C(C)C)N2C(=O)/C(=C/c3ccc(Br)cc3)SC2=S)cc1` (configuration not stated), the GI50 in the test on A498 renal is 1.52 µM; with DU-145 prostate it was 4.44 µM; with EKVX NSCLC, 5.24 µM; in the test on MCF7 breast, 1.99 µM; with MOLT-4 leukemia, 2.68 µM; in the test with NCI-H522 lung, 2.03 µM. Moreover, the GI50 in the test on OVCAR-4 ovarian was 2.25 µM; in the test on RPMI-8226 leukemia it was 2.35 µM; in the test on SK-MEL-28 melanoma, 2.07 µM; in the test with SNB-19 CNS, 2.3 µM. In addition, the TGI in the test on A498 renal turned out to be 14.6 µM; in the test on DU-145 prostate, 14.7 µM; with EKVX NSCLC, 18.8 µM; in the test with MCF7 breast it was 4.34 µM; in the test on MOLT-4 leukemia, 9.38 µM; in the test on NCI-H522 lung, 4.55 µM. The TGI was determined as 5.67 µM in the test on OVCAR-4 ovarian, 5.73 µM in the test on RPMI-8226 leukemia, 4.35 µM in the test with SK-MEL-28 melanoma and 6.09 µM with SNB-19 CNS.

In the case of `COc1cc(C(=O)c2cnc(-c3ccc4cc[nH]c4c3)[nH]2)cc(OC)c1OC`, the GI50 in the test with A498 renal was 0.0136 µM; in the test with DU-145 prostate, 0.0363 µM; with EKVX NSCLC, 0.0721 µM; with MCF7 breast, 0.0376 µM; with MOLT-4 leukemia, 0.0597 µM; in the test with NCI-H522 lung, under 0.0128 µM. The GI50 in the test with OVCAR-4 ovarian is 0.993 µM; with RPMI-8226 leukemia it was 0.0417 µM; in the test on SK-MEL-28 melanoma, 0.454 µM; in the test with SNB-19 CNS, 0.0409 µM. The TGI came out at 0.0788 µM in the test with A498 renal; 11.1 µM with DU-145 prostate; 19.7 µM in the test on EKVX NSCLC; 11.4 µM in the test on MCF7 breast; 15.6 µM in the test on MOLT-4 leukemia; 0.0913 µM in the test on NCI-H522 lung. Also, the TGI in the test on OVCAR-4 ovarian turned out to be 20 µM; in the test on RPMI-8226 leukemia, 2.77 µM; in the test with SK-MEL-28 melanoma it was 16 µM; in the test on SNB-19 CNS, 13.7 µM.

Turning to `O=C(Nc1cccc(-n2ccc3c(NC(=O)c4ccccc4)nccc32)c1)c1ccc(Cl)c(Cl)c1`, the GI50 was 0.13 µM with A498 renal; 0.22 µM in the test with DU-145 prostate; 0.704 µM with EKVX NSCLC; 0.04 µM in the test on MCF7 breast; 0.634 µM in the test with MOLT-4 leukemia; 0.0786 µM with NCI-H522 lung. Besides, the GI50 in the test on OVCAR-4 ovarian is 0.611 µM; in the test on RPMI-8226 leukemia, 0.263 µM; in the test with SK-MEL-28 melanoma it was 0.298 µM; with SNB-19 CNS, 0.219 µM. The TGI in the test on A498 renal is 0.735 µM; in the test on DU-145 prostate, 0.855 µM; in the test with EKVX NSCLC, 3.34 µM; with MCF7 breast, 1.43 µM; in the test with NCI-H522 lung, 1.22 µM; in the test on OVCAR-4 ovarian, 2 µM. Moreover, the figures for the TGI with RPMI-8226 leukemia, in the test with SK-MEL-28 melanoma and in the test with SNB-19 CNS were 1.16 µM, 2.06 µM and 1.89 µM, respectively.

In the case of `COc1ccc2c(c1)C(=O)/C(=C/c1cccc(OCC(=O)c3ccc([N+](=O)[O-])cc3)c1)CO2`, the GI50 was 14.3 µM in the test with A498 renal; 2.73 µM in the test with DU-145 prostate; 7.68 µM in the test on EKVX NSCLC; 0.72 µM with MCF7 breast; 3.03 µM in the test on MOLT-4 leukemia; 3.5 µM in the test with NCI-H522 lung. Also, the GI50 in the test with OVCAR-4 ovarian was 4.36 µM; with RPMI-8226 leukemia, 1.13 µM; in the test on SK-MEL-28 melanoma, 1.86 µM; in the test with SNB-19 CNS, 12.4 µM. The TGI in the test on A498 renal was found to be 27.3 µM; with DU-145 prostate, 7.14 µM; in the test on EKVX NSCLC, 21.9 µM; in the test on MCF7 breast it was 3.68 µM; in the test with MOLT-4 leukemia it was 17.9 µM; with NCI-H522 lung it was 9.41 µM. The TGI with OVCAR-4 ovarian came to 17.2 µM; in the test with SK-MEL-28 melanoma it was 3.7 µM; in the test with SNB-19 CNS, 25.4 µM.

On to `CN(C)c1ccc(/C=N/n2c(CCCCc3n[nH]c(=S)n3/N=C/c3ccc(N(C)C)cc3)n[nH]c2=S)cc1`, for which the GI50 in the test with A498 renal, in the test with DU-145 prostate, in the test with EKVX NSCLC, in the test with MCF7 breast, with MOLT-4 leukemia and in the test with NCI-H522 lung was over 100 µM in each case. In addition, the GI50 in the test on OVCAR-4 ovarian, in the test with RPMI-8226 leukemia, in the test on SK-MEL-28 melanoma and with SNB-19 CNS was over 100 µM throughout. Besides, the TGI with A498 renal, with DU-145 prostate, in the test on EKVX NSCLC, in the test on MCF7 breast, in the test with MOLT-4 leukemia and with NCI-H522 lung was over 100 µM in each case. The TGI in the test on OVCAR-4 ovarian, in the test on RPMI-8226 leukemia, with SK-MEL-28 melanoma and in the test on SNB-19 CNS was over 100 µM each time.

`CN(CO)c1nc(N(C)CO)nc(N(C)CO)n1`: the TGI is 60.7 µM and 54 µM with A498 renal; 64.8 µM and 76.5 µM with DU-145 prostate; > 81.5 µM and 77.7 µM with EKVX NSCLC; 99.1 µM and 56.4 µM in the test on MCF7 breast; 77 µM and 128 µM with MOLT-4 leukemia; 43.9 µM and 53.7 µM in the test on NCI-H522 lung. Also, the TGI in the test on OVCAR-4 ovarian was 39.1 µM and 55.6 µM; in the test on RPMI-8226 leukemia it was > 91.4 µM and 43.4 µM; in the test with SK-MEL-28 melanoma, 36.7 µM and 28.4 µM; in the test with SNB-19 CNS, 45.3 µM and 50.4 µM. The GI50 with DU-145 prostate was 29 µM; in the test with EKVX NSCLC, 41.8 µM; in the test with MCF7 breast, 32 µM; in the test on MOLT-4 leukemia, 23.5 µM; in the test on OVCAR-4 ovarian, 18.9 µM and 23.8 µM; in the test with RPMI-8226 leukemia, 27.5 µM. Also, the GI50 in the test with SK-MEL-28 melanoma was 18.3 µM; in the test on SNB-19 CNS, 29.8 µM.
